Test results published in ChEMBL document CHEMBL1144238, “Identification and SAR around N-{2-[4-(2,3-dihydro-benzo[1,4]dioxin-2-ylmethyl)-[1,4]diazepan-1-yl]-ethyl}-2-phenoxy-nicotinamide, a selective alpha2C adrenergic receptor antagonist” (Bioorg Med Chem Lett, 2008).

Experiments:
[1] = biological target: T1, Alpha-2C adrenergic receptor (Homo sapiens, UniProt P18825); test: Binding affinity at human recombinant adrenergic Alpha-2C receptor expressed in CHO cells by radioligand binding assay; format: cell-based
T1 sequence (P18825 whole entry): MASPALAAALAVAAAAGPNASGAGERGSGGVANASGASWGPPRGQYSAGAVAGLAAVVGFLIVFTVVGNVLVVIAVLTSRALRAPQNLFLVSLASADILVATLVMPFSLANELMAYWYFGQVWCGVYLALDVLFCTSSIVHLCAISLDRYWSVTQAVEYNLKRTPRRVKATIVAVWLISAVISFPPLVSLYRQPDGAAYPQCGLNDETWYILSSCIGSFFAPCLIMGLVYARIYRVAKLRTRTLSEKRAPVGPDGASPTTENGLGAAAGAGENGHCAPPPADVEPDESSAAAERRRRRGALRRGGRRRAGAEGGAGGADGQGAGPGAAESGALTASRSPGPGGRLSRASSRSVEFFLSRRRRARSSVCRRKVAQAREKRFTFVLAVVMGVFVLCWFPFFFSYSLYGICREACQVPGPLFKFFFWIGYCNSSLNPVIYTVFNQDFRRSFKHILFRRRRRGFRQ

[2] = biological target: T2, Alpha-2B adrenergic receptor (Homo sapiens, UniProt P18089); test: Binding affinity at human recombinant adrenergic alpha2B receptor expressed in CHO cells by radioligand binding assay; format: cell-based
T2 sequence (P18089 whole entry): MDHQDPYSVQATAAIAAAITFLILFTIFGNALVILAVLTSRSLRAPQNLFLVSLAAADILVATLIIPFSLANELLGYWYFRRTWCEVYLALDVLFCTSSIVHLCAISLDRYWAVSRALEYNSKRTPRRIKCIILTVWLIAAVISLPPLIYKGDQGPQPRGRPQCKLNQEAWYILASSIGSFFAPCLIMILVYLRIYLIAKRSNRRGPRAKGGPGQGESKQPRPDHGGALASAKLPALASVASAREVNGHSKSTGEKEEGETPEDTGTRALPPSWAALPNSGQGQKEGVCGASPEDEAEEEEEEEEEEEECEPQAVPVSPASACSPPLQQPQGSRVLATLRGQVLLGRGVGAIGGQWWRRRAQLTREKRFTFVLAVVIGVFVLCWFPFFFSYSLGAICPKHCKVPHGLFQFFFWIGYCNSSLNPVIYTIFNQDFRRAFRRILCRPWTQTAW

[3] = biological target: T3, Alpha-2A adrenergic receptor (Homo sapiens, UniProt P08913); test: Binding affinity at human recombinant adrenergic alpha2A receptor expressed in CHO cells by radioligand binding assay; format: cell-based
T3 sequence (P08913 whole entry): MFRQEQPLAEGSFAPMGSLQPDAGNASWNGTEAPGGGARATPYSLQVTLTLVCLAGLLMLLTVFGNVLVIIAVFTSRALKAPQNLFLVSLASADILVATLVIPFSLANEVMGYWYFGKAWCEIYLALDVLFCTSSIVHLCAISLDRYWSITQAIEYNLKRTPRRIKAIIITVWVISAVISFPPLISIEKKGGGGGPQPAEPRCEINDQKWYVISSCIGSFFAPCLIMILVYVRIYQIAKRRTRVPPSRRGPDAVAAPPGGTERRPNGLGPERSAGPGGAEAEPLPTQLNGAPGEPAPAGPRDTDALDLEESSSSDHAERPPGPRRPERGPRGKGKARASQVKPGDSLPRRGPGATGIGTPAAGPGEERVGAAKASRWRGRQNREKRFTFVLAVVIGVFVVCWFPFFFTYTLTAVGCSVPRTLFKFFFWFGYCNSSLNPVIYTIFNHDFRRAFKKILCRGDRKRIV

[4] = biological target: T1, Alpha-2C adrenergic receptor; test: Antagonist activity at human recombinant adrenergic Alpha-2C receptor expressed in CHO cells assessed as inhibition of NE-induced calcium mobilization by FLIPR; format: functional, cell-based
[5] = biological target: T2, Alpha-2B adrenergic receptor; test: Antagonist activity at human recombinant adrenergic alpha2B receptor expressed in CHO cells assessed as inhibition of NE-induced calcium mobilization by FLIPR; format: functional, cell-based
[6] = biological target: T3, Alpha-2A adrenergic receptor; test: Antagonist activity at human recombinant adrenergic alpha2A receptor expressed in CHO cells assessed as inhibition of NE-induced calcium mobilization by FLIPR; format: functional, cell-based
[7] = organism: Homo sapiens; test: Selectivity for human recombinant adrenergic Alpha-2C receptor over human recombinant adrenergic alpha2B receptor by radioligand binding assay
[8] = organism: Homo sapiens; test: Selectivity for human recombinant adrenergic Alpha-2C receptor over human recombinant adrenergic alpha2A receptor by radioligand binding assay
[9] = organism: Homo sapiens; test: Selectivity human recombinant adrenergic Alpha-2C receptor over human recombinant adrenergic alpha2B receptor by FLIPR
[10] = organism: Homo sapiens; test: Selectivity human recombinant adrenergic Alpha-2C receptor over human recombinant adrenergic alpha2A receptor by FLIPR

Row | Ki [1] [nM] | Ki [2] [nM] | Ki [3] [nM] | Ki [4] [nM] | Ki [5] [nM] | Ki [6] [nM] | Ratio Ki [7] | Ratio Ki [8] | Ratio Ki [9] | Ratio Ki [10] | Compound
1 | 1.9 | 15.3 | 44.8 | 1.7 | 5.2 | 15.4 | 8 | 23 | 3 | 9 | c1ccc(Oc2ncccc2-c2noc(CN3CCCN(CC4COc5ccccc5O4)CC3)n2)cc1 (stereo not drawn)
2 | 9.2 |  |  |  |  |  | 12 | 53 |  |  | O=C(NCCN1CCCN(C[C@@H]2COc3ccccc3O2)CC1)c1cccnc1Oc1ccccc1
3 | 0.5 | 28 | 138 | 30.5 | 103 | 366 | 58 | 286 | 3 | 12 | CC(C)(C)Nc1ncccc1C(=O)NCCN1CCCN(CC2COc3ccccc3O2)CC1 (stereo not drawn)
4 | 0.6 | 10.9 | 118 | 3.8 | 14.1 | 48.4 | 18 | 195 | 4 | 13 | CCCCOc1cccc(C(=O)NCCN2CCCN(CC3COc4ccccc4O3)CC2)n1 (stereo not drawn)
5 | 33 | 194 | 506 | 23 | 17 | 167 | 6 | 15 | 1 | 7 | COc1ccccc1N1CCN(CC2COc3ccccc3O2)CC1 (stereo not drawn)
6 | 3 | 8 | 27 |  |  |  | 3 | 9 |  |  | O=C(NCCN1CCN(CC2COc3ccccc3O2)CC1)c1cccnc1Oc1ccccc1 (stereo not drawn)
7 | 15.7 | 17.9 | 443 |  |  |  | 1 | 28 |  |  | O=C(NCCN1CCCN(CC2COc3ccccc3O2)CC1)c1cccnc1 (stereo not drawn)
